In test [1] the target is T1, hKCNQ2/3 (Homo sapiens, UniProt O43525+O43526). The test can be described thus: Fluorescence assay using a voltage-sensitive dye (fluorimetry). Format: cell-based. The arrangement: expressed in transfected cells; host or cells: CHO-K1. The note with it: CHO-K1 cells expressing KCNQ2/3; for Emax at 1 µM / Emax at 10 µM: relative to retigabine = 100%; for Emax at 1 µM: read-out: Fluorimetry % Efficacy @ 1 μM (Retigabine = 100%); for Emax at 10 µM: read-out: Fluorimetry % Efficacy @ 10 μM (Retigabine = 100%). How it is done: Pharmacological Experiments Fluorescence Assay Using a Voltage-Sensitive Dye
Human CHO-K1 cells expressing KCNQ2/3 channels are cultivated adherently at 37° C., 5% CO2 and 95% humidity in cell culture bottles (e.g. 80 cm^2 TC flasks, Nunc) with DMEM-high glucose (Sigma Aldrich, D7777) including 10% FCS (PAN Biotech, e.g. 3302-P270521) or alternatively MEM Alpha Medium (1×, liquid, Invitrogen, #22571), 10% foetal calf serum (FCS) (Invitrogen, #10270-106, heat-inactivated) and the necessary selection antibiotics.
Before being sown out for the measurements, the cells are washed with a 1×DPBS buffer without Ca^2+/Mg^2+ (e.g. Invitrogen, #14190-094) and detached from the bottom of the culture vessel by means of Accutase (PAA Laboratories, #L11-007) (incubation with Accutase for 15 min at 37° C.). The cell count then present is determined using a CASY™ cell counter (TCC model, Scharfe System) in order subsequently to apply 20,000 to 30,000 cells/well/100 μl of the described nutrient medium, depending on density optimisation for the individual cell line, to 96-well measuring plates of the Corning™ CeIIBIND™ type (flat clear-bottom black polystyrene microplates, #3340).
Incubation is then carried out for one hour at room temperature, without gassing or adjusting the humidity, followed by incubation for 24 hours at 37° C., 5% CO2 and 95% humidity.
The voltage-sensitive fluorescent dye from the Membrane Potential Assay Kit (Red™ bulk format part R8123 for FLIPR, MDS Analytical Technologies™) is prepared by dissolving the contents of a vessel of Membrane Potential Assay Kit Red Component A in 200 ml of extracellular buffer (ES buffer, 120 mM NaCl, 1 mM KCl, 10 mM HEPES, 2 mM CaCl2, 2 mM MgCl2, 10 mM glucose; pH 7.4). After removal of the nutrient medium, the cells are washed with 200 μl of ES buffer, then covered with a layer of 100 μl of the dye solution prepared above and incubated for 45 min at room temperature with exclusion of light.
The fluorescence measurements are carried out with a BMG Labtech FLUOstar™ BMG Labtech NOVOstar™ or BMG Labtech POLARstar™ instrument (525 nm excitation, 560 nm emission, bottom-read mode). After incubation of the dye, 50 μl of the substances to be tested in the desired concentrations, or 50 μl of ES buffer for control purposes, are introduced into separate cavities of the measuring plate and incubated for 30 min at room temperature whilst being shielded from light. The fluorescence intensity of the dye is then measured for 5 min and the fluorescence value F1 of each well is thus determined at a given, constant time. 15 μl of a […] KCl solution ([…]) are then added to each well. The change in fluorescence is subsequently measured until all relevant measured values have been obtained (mainly 5-30 min). At a given time after KCl application, a fluorescence value F2 is determined, in this case at the time of the fluorescence peak.
For calculation, the fluorescence intensity F2 is compared with the fluorescence intensity F1, and the agonistic activity of the target compound on the potassium channel is determined therefrom. F2 and F1 are calculated as follows: […]
In order to determine whether a substance has an agonistic activity,
[formula] for example, can be compared with
[formula] of control cells.
[formula] is determined by adding to the reaction batch only the buffer solution instead of the substance to be tested, determining the value F1K of the fluorescence intensity, adding the potassium ions as described above and measuring a value F2K of the fluorescence intensity. Then F2K and F1K are calculated as follows: […]
A substance has an agonistic activity on the potassium channel if
[formula] is greater than
Independently of the comparison of
[formula] it is also possible to conclude that a target compound has an agonistic activity if an increase in
[formula] is to be observed as the dosage of the target compound increases. […]

Test [2] concerns the target T1, hKCNQ2/3. The experiment in a line: Voltage-clamp (patch-clamp) measurements on stably transfected hKCNQ2/3 CHO-K1 cell line. The note with it: 10 μM test substance at −40 mV, current increase normalised against retigabine (10 μM), read-out: Patch-clamp % Efficacy @ 10 μM (Retigabine = 100%). The arrangement: expressed in transfected cells; host or cells: CHO-K1 (stably transfected). It is filed as cell-based. The procedure: Voltage-Clamp Measurements
In order to confirm a KCNQ2/3 agonistic action of the substances electrophysiologically, patch-clamp measurements (Hamill O P, Marty A, Neher E, Sakmann B, Sigworth F J: Improved patch-clamp techniques for high-resolution current recording from cells and cell-free membrane patches, Pfluger's Arch. 1981 August; 391(2):85-100) were performed in voltage-clamp mode on a stably transfected hKCNQ2/3 CHO-K1 cell line. After formation of the gigaseal the cells were first clamped at a holding potential of −60 mV. Depolarising voltage jumps up to a potential of +20 mV were then applied (increment: 20 mV, duration: 1 second) in order to confirm the functional expression of KCNQ2/3-typical currents. The substances were tested at a potential of −40 mV. First of all the current increase induced by retigabine (10 μM) at −40 mV was recorded on each cell as a positive control. After completely washing out the retigabine effect (duration: 80 s) the test substance (10 μM) was applied. The current increase induced by the test substance was normalised against the retigabine effect and stated as the relative efficacy (see below).
(The patch-clamp technique gives a direct electrical read-out from membranes.)

pEC50: −log10 of the molar value.

T1 sequence (O43526 whole entry): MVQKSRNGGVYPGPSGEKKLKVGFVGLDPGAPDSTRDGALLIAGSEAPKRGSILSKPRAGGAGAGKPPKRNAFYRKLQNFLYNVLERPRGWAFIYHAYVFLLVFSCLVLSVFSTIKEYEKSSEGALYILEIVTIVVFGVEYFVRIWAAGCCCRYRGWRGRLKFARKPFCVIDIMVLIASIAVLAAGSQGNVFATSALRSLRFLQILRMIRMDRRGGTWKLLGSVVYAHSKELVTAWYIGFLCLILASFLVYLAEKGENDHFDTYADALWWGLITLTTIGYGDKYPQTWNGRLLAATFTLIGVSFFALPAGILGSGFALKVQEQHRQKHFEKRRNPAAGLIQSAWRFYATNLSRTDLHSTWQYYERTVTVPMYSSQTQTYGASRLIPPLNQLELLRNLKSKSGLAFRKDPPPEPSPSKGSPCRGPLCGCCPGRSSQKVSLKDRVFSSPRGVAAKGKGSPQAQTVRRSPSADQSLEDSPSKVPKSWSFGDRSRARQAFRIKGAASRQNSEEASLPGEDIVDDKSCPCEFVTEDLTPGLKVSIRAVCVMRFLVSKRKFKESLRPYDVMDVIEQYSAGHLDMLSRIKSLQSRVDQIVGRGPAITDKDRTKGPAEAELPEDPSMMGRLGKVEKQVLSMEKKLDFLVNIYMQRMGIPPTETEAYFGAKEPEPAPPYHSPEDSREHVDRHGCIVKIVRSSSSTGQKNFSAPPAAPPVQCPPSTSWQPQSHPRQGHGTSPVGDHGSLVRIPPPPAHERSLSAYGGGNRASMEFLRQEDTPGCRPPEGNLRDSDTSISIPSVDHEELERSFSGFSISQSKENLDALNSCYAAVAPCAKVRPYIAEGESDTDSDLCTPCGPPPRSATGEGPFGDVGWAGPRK
T1 sequence (O43525 whole entry): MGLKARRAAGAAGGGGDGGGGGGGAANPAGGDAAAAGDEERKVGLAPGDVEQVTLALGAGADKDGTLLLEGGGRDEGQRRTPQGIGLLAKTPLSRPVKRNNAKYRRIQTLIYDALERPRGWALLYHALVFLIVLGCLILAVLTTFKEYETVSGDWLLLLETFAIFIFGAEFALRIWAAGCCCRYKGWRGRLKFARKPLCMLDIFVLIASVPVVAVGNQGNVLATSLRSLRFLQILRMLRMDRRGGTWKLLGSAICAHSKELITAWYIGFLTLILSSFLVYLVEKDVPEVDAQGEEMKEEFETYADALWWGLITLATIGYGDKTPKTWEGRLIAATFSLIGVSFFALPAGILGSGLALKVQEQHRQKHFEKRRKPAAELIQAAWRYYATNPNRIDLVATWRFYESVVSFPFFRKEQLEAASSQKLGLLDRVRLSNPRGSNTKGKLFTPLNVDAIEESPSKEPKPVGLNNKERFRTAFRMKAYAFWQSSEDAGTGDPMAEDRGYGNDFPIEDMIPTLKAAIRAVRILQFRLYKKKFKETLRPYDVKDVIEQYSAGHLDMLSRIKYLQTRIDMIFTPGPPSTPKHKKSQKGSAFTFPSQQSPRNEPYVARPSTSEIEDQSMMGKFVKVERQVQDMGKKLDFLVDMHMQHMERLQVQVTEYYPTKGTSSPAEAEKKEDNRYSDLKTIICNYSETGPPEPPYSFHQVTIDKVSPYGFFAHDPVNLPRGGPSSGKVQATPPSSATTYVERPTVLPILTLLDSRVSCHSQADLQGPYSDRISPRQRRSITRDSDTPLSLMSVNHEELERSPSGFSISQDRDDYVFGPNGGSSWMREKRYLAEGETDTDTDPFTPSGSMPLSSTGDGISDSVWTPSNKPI

What is called pEC50 is the EC50 on a negative log10 scale, so that one unit is a factor of ten. Higher therefore signals a small EC50. With `CC1(C)CN(C(=O)CCC(=O)NCc2cccc(C(F)(F)F)c2)C(c2ccccc2)c2ccccc21` (centres unmarked) [Example compound 10, 4-(4,4-Dimethyl-1-phenyl-1,3-dihydroisoquinolin-2-yl)-4-oxo-N-[[3-(trifluoromethyl)phenyl]methyl]butyric acid amide], at hKCNQ2/3 [1], the Emax at 1 µM worked out at 45% and the pEC50 is 6.87.

Regarding `Cc1ccccc1C1c2ccccc2CCN1C(=O)CCC(=O)NCc1cccc(C(F)(F)F)c1` (centres unmarked) [Example compound 67, 4-Oxo-4-(1-(2-tolyl)-3,4-dihydro-1H-isoquinolin-2-yl)-N-[[3-(trifluoromethyl)-phenyl]methyl]butyric acid amide], on hKCNQ2/3 [1], the Emax at 1 µM worked out at 112% and the negative logarithm of the EC50 (pEC50) is 6.67.

For `O=C(CCC(=O)N1CCc2ccccc2C1c1ccccc1)NCc1ccc(C(F)(F)F)cc1` (centres unmarked) [Example compound 8, 4-Oxo-4-(1-phenyl-3,4-dihydro-1H-isoquinolin-2-yl)-N-[[4-(trifluoromethyl)phenyl]methyl]butyric acid amide], the Emax at 1 µM at hKCNQ2/3 [1] was determined as 63%.

`O=C(CCC(=O)N1CCc2ccccc2C1c1cccs1)NCc1cccc(C(F)(F)F)c1` (centres unmarked) [Example compound 3, 4-Oxo-4-(1-thien-2-yl-3,4-dihydroisoquinolin-2(1H)-yl)-N-(3-(trifluoromethyl)benzyl)butyric acid amide]: on hKCNQ2/3 [1], the Emax at 1 µM was 76%, the Emax at 10 µM was 134% and the pEC50 is 5.98.

With `Cc1ccccc1C1c2ccccc2CCN1C(=O)CCC(=O)NCc1ccc(C(F)(F)F)cc1` (centres unmarked) [Example compound 68, 4-Oxo-4-(1-(2-tolyl)-3,4-dihydro-1H-isoquinolin-2-yl)-N-[[4-(trifluoromethyl)-phenyl]methyl]butyric acid amide], on hKCNQ2/3 [1], the Emax at 1 µM was 56% and the pEC50 was 6.83.

Consider `CC1Cc2ccccc2C(c2ccccc2)N1C(=O)CCC(=O)NCc1cccc(C(F)(F)F)c1` (centres unmarked) [Example compound 13, 4-(3-Methyl-1-phenyl-3,4-dihydro-1H-isoquinolin-2-yl)-4-oxo-N-[[3-(trifluoromethyl)phenyl]methyl]butyric acid amide], for which, at hKCNQ2/3 [1], the Emax at 1 µM turned out to be 29%.

As for `CC1CN(C(=O)CCC(=O)NCc2cccc(C(F)(F)F)c2)C(c2ccccc2)c2ccccc21` (centres unmarked) [Example compound 9, 4-(4-Methyl-1-phenyl-3,4-dihydro-1H-isoquinolin-2-yl)-4-oxo-N-[[3-(trifluoromethyl)phenyl]methyl]butyric acid amide], at hKCNQ2/3 [1], the Emax at 1 µM is 51% and the pEC50 was 6.94.

Turning to `COc1ccc2c(c1)C(c1ccccc1)N(C(=O)CCC(=O)NCc1cccc(C(F)(F)F)c1)CC2` (centres unmarked) [Example compound 11, 4-(7-Methoxy-1-phenyl-3,4-dihydro-1H-isoquinolin-2-yl)-4-oxo-N-[[3-(trifluoromethyl)phenyl]methyl]butyric acid amide], on hKCNQ2/3 [1], the Emax at 1 µM was determined as 30%.

`O=C(CCC(=O)N1CCc2ccccc2C1c1ccccc1)NCc1ccccc1C(F)(F)F` (centres unmarked) [Example compound 7, 4-Oxo-4-(1-phenyl-3,4-dihydro-1H-isoquinolin-2-yl)-N-[[2-(trifluoromethyl)phenyl]methyl]butyric acid amide]: on hKCNQ2/3 [1], the Emax at 1 µM was 12%.

Take `Cc1ccccc1C1c2ccccc2CCN1C(=O)CCC(=O)NCc1ccccc1C(F)(F)F` (centres unmarked) [Example compound 69, 4-Oxo-4-(1-(2-tolyl)-3,4-dihydro-1H-isoquinolin-2-yl)-N-[[2-(trifluoromethyl)-phenyl]methyl]butyric acid amide]: on hKCNQ2/3 [1], the Emax at 1 µM is 67% and the pEC50 is 6.80.

Consider `CC1c2ccccc2CCN1C(=O)CCC(=O)NCc1cccc(C(F)(F)F)c1` (centres unmarked) [Example compound 2, 4-(1-Methyl-3,4-dihydro-1H-isoquinolin-2-yl)-4-oxo-N-[[3-(trifluoromethyl)phenyl]methyl]butyric acid amide], for which, at hKCNQ2/3 [2], the Emax at 10 µM was 17%. In addition, the negative-log EC50 (pEC50) at hKCNQ2/3 [1] was 4.98.

With `O=C(CCC(=O)N1CCc2ccc(F)cc2C1c1ccccc1)NCc1cccc(C(F)(F)F)c1` (centres unmarked) [Example compound 5, 4-(7-Fluoro-1-phenyl-3,4-dihydroisoquinolin-2(1H)-yl)-4-oxo-N-(3-(trifluoromethyl)benzyl)butyric acid amide], on hKCNQ2/3 [1], the Emax at 1 µM came out at 69% and the pEC50 was 7.08.

As for `O=C(CCC(=O)N1CCc2c(F)cccc2C1c1ccccc1)NCc1cccc(C(F)(F)F)c1` (centres unmarked) [Example compound 6, 4-(5-Fluoro-1-phenyl-3,4-dihydro-1H-isoquinolin-2-yl)-4-oxo-N-[[3-(trifluoromethyl)phenyl]methyl]butyric acid amide], at hKCNQ2/3 [1], the Emax at 1 µM is 73% and the negative logarithm of the EC50 (pEC50) is 7.12.

For `COc1cccc2c1CCN(C(=O)CCC(=O)NCc1cccc(C(F)(F)F)c1)C2c1ccccc1` (centres unmarked) [Example compound 12, 4-(5-Methoxy-1-phenyl-3,4-dihydro-1H-isoquinolin-2-yl)-4-oxo-N-[[3-(trifluoromethyl)phenyl]methyl]butyric acid amide], the Emax at 1 µM at hKCNQ2/3 [1] is -7%.

With `O=C(CCC(=O)N1CCc2ccccc2C1c1ccncc1)NCc1cccc(C(F)(F)F)c1` (centres unmarked) [Example compound 4, 4-Oxo-4-[1-(4-pyridyl)-3,4-dihydro-1H-isoquinolin-2-yl]-N-[[3-(trifluoromethyl)phenyl]methyl]butyric acid amide], on hKCNQ2/3 [1], the Emax at 1 µM turned out to be 11% and the Emax at 10 µM is 35%.

(Values after US8367700B2, “Substituted 4-(1.2,3,4-tetrahydroisoquinolin-2-yl)-4-oxobutyric acid amide as KCNQ2/3 modulators” (Gruenenthal GmbH, priority 2008, dated 2013).)
